Experimental findings from patent US6951883B2, “2H-1-benzopyran derivatives processes for their preparation and pharmaceutical compositions thereof” (Chiesi Farmaceutici S.p.A., priority 2001, dated 2005) are described below.

Data set [1] deals with OVX rats. Nature of the data set: Four-week OVX rat assay, uterine effects (weight, eosinophil peroxidase, histology). The note with it: in vivo. Here is the method: (§1) The experiments have been conducted according to Kaln D N, Bone Mineral 15, 175-192, 1991 and Grese T A et al J Med Chem 40, 146-167, 1997.
(§2) The effects of the tested compounds were evaluated also in 9-11-month-old OVX rats that were dosed for 4 weeks post-surgery and compared with OVX and Sham controls.
(§3) Tissue-specific estrogen agonist effects were examined utilizing uterine weight, uterine histology, uterine eosinophil peroxidase activity (EPO), bone mineral density (BMD), and serum cholesterol levels as end points.
The degree of eosinophilic peroxidase induction of the uterus may be a useful marker for estrogen-effected growth responses (Lyttle C R and DeSombre E R Proc Natl Acad Sci USA 74, 3162-3166, 1977).

The subject of data set [2] is immature female rats (E2-stimulated uterus). The data set is described as follows: Immature female rat assay, antiuterotrophic activity. It is filed as in vivo. The text has this: (§4) In Vivo Studies—Immature Female Rat Assay.
Antiuterotrophic Activity
(§5) Experiments have been conducted as described in Eppenberger U et al, Am J Clin Oncol 14 (suppl. 2), S5-S14, 1991.
This concentration of E2 was the lowest producing near-maximal effect and was chosen on the basis of preliminary dose-response experiments.

Data set [3] concerns OVX rats. The data set is described as follows: Four-week OVX rat assay, bone mineral density (lumbar spine L1-4) by DEXA. The note with it: 4 weeks. It is filed as in vivo. The method, then: Effects in the Ovariectomized (OVX) Rat Model
as §1, §2, §3
Effect on Bone Mineral Density (BMD) (Lumbar Spine L1-4)
Bone mineral density (BMD) was measured by DEXA (Dual Energy XRay Absorptiometry) using a Hologic QDR-1000 plus instrument equipped with dedicated software for small animal measurements. An ultrahigh-resolution mode (line spacing 0.0254 cm and resolution 0.0127 cm) was used with a collimator of 0.63 mm diameter. This technique provides an integrated measure of both cortical and trabecular bone.
In vivo DEXA measurements were carried out immediately before surgery (baseline scan) and 4 weeks after surgery. The anatomic region examined was the lumbar spine L1-4.
All animals were anesthetized before scanning with a mixture of ketamine and p-promazine. For each scan a rat was placed in a supine position with the spine parallel to the long axis of the densitometer table. The lumbar spine was scanned using the pelvic bones as landmark; analysis of this site was accomplished by dividing vertebra and intervertebral spaces with subregional high resolution software and including only target vertebra in the global region of interest.
Percent protection was calculated by the following formula: % protection=[(% chance BMDtest compound−% chance BMDOVX control)/(% chance BMDsham control−% chance BMDOVX control)]×100.

Data set [4] has as its system OVX rats. Nature of the data set: Four-week OVX rat assay, serum cholesterol levels. It is filed as in vivo. As to conditions: for lowering of serum cholesterol levels, comparison in words: with respect to controls, compared with E2 / Compound II. Here is the method: as §1, §2, §3
Effect on Serum Cholesterol Levels

The next data set addresses human ER-β (Homo sapiens, UniProt Q92731). Nature of the data set: Human estrogen receptor-β binding. As to conditions: for affinity for ER-β higher than raloxifene: compared with raloxifene. The text has this: (§6) In Vitro Study—Human Estrogen Receptor-α and -β (ER-α and ER-β)
For another data set, the system named is MCF-7. Nature of the data set: cells. As to conditions: for concentration of total growth inhibition: 72-hours incubation; for IC50: read-out: Inhibitory Concentration IC50. Here is the method:
In Vitro Study—MCF-7 Cell Proliferation
The tumor cells were obtained from American Type Culture Collection (ATCC HTB-22). The culture media used was Minimum Essential medium with 10% fetal bovine serum, and media were supplemented with 1% antibiotic-antimycotic. Aliquots of 100 μl of cell suspension (5×10^3/well) were placed in 96-well microtiter plates in an atmosphere of 5% CO2 at 37° C. After 24 hours, 100 μl of growth medium, 2 μl of test solution, mitomycin or vehicle (DMSO, final concentration 0.4%), was added respectively per well in duplicate for an additional 72-hours incubation. At the end of incubation, 20 μl of alamarBlue 75% reagent was added to each well for another 6-hour incubation before detection of cell viability by fluorescent intensity (excitation at 530 nm and emission at 590 nm).

Data set [5] concerns immature female rats (uterine weight). Nature of the data set: Immature female rat assay, uterotrophic activity. The format is in vivo. As to conditions: for increase of uterine weight compared with vehicle treated control rats: 0.1 mg/kg/day; for uterine weight versus control rats: 0.01, 1 and 10 mg/kg/day; for uterine weights versus control rats: 0.01, 0.1, 1 and 10 mg/kg·day.
From the text: as §4, §5

In another data set the target is T1, human ER-α (Homo sapiens, UniProt P03372).
T1 sequence (P03372 1-595): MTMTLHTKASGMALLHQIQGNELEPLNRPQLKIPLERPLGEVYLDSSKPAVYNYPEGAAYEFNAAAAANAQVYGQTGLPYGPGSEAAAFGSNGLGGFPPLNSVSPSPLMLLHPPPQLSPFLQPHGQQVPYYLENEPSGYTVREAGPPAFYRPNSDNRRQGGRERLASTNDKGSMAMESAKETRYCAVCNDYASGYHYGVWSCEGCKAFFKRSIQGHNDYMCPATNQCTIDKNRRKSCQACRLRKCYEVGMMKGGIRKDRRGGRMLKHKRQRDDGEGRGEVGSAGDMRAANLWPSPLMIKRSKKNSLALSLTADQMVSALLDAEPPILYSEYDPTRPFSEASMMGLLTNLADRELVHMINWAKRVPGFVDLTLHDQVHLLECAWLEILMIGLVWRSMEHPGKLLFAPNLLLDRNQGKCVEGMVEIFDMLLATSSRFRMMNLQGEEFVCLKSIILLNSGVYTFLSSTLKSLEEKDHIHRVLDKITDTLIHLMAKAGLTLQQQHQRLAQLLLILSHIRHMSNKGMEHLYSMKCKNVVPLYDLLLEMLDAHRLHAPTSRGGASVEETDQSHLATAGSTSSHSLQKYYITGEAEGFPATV
The data set is described as follows: Human estrogen receptor-α binding.
From the text: as §6

The next data set is described as follows: Solubility in water. It is filed as physicochemical. As to conditions: r.t.
[6] abbreviates: oral, E2 0.05 mg/kg per os for 3 days.

Where only a bound is given, the exact number is not on record here.

Sequence of human ER-β (Q92731 whole entry): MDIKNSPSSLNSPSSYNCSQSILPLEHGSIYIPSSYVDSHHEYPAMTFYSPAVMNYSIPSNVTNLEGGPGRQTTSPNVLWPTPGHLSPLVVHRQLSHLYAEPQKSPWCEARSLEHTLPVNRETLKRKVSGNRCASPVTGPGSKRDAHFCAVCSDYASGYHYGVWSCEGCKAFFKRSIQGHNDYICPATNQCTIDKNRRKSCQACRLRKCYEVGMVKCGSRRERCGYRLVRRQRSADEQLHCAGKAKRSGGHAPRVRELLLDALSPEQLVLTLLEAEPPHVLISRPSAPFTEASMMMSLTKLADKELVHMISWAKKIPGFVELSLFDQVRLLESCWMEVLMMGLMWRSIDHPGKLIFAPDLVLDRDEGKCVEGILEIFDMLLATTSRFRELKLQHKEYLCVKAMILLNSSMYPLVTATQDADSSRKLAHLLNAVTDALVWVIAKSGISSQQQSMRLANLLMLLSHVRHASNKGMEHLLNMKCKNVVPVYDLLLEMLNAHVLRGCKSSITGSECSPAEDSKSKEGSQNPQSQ

For the compound “17α-ethynil estradiol [reference compound]”, in the data set with OVX rats [1], the “uterine epithelia / endometrium histology” value is recorded as “full disappearance of epithelium atrophy”. For the same compound, the “increase of uterine wet weight compared with vehicle-treated controls” value in [2] (0.05 mg/kg per os for 3 days) was 170-220%. Further, the “% protection of BMD” value in the data set on OVX rats [3] (first experiment, 0.1 mg/kg) is listed as around 50%; with OVX rats [3] (second experiment, 0.1 mg/kg), around 95%.
As for `Oc1ccc2c(c1)OCC(c1ccccc1)=C2Cc1ccc(OCCN2CCCCC2)cc1` [Compound I, 3-phenyl-4-(4-(2-(N-piperidinyl)ethoxy)benzyl)-7-hydroxychrom-3-ene], the “maximal lowering of cholesterol, inhibition relative to the OVX control” value with OVX rats [4] (10 mg/kg) was found to be 67%. In addition, in the data set on OVX rats [4] (Rattus norvegicus, 672 h, 0.1-10 mg/kg day, 4 weeks, read-out: ED50, decrease of total serum cholesterol (half maximal efficacy)), the 50% effective dose (ED50) was determined as 0.12 mg/kg. Besides, at human ER-β, the affinity, expressed as Ki, was 0.157 ± 0.028 nM and the “affinity for ER-β higher than raloxifene” value came out at 10 fold. Also, the “dose at which total antagonism of E2 uterotrophic action was observed” value in [2] (oral) fell in the range of 1 to 10 mg/kg/day. Besides, the “EC50, inhibition of the uterotrophic action of E2” value in data set [2] (setting [6]) is 0.33 mg/kg·day. In the data set with MCF-7, the “concentration of total growth inhibition” value is 11 µM. Besides, the CC50 in the data set on MCF-7 (Homo sapiens, MCF7, 72 h, read-out: 50% lethal concentrations (LC50)) came to 20000 nM. For the same compound, the IC50 in the data set on MCF-7 (Homo sapiens, MCF7, 72 h) was 6500 nM. In data set [5], the “increase of uterine weight compared with vehicle treated control rats” value was 17% and the “uterine weight versus control rats” value is “not significantly different from control rats”. Besides, on human ER-α, the inhibition constant (Ki) amounted to 0.041 ± 0.011 nM. In the data set with OVX rats [3] (first experiment, 10 mg/kg/day), the “% protection of BMD” value came out at 47%.
For the compound `COc1ccc(C2=C(Cc3ccc(OCCN4CCCCC4)cc3)c3ccc(O)cc3OC2)cc1.Cl` [Compound II, 3-(4-methoxy)phenyl-4-[[4-[2-(1-piperidinyl)ethoxyl]phenyl]methyl]-2H-1-benzopyran-7-ol hydrochloride], the “decrease of total serum cholesterol, inhibition” value in the data set with OVX rats [4] (0.1 mg/kg·day) worked out at 75%; in the data set with OVX rats [4] (1 mg/kg·day) it was 81%. Besides, the “lowering of serum cholesterol levels, comparison in words” value (“lowering of serum cholesterol levels” below) in the data set with OVX rats [4] is “as efficacious as E2”. The Ki came out at 0.099 ± 0.005 nM on human ER-β and 0.017 ± 0.002 nM on human ER-α. Also, the “affinity for ER-β higher than raloxifene” value at human ER-β is 16 fold. For the same compound, the “dose at which total antagonism of E2 uterotrophic action was observed” value in data set [2] (oral) was 0.1-1 mg/kg·day. The “ED50 = dose required to produce 50% reduction in estradiol-stimulated growth” value in [2] (setting [6]) is recorded as 0.016 mg/kg·day. Besides, the “uterine weights versus control rats” value in [5] was “not significantly different from control rats”. In addition, the “% protection of BMD” value is listed as 60% with OVX rats [3] (second experiment, 0.1 mg/kg) and 119% in the data set on OVX rats [3] (second experiment, 1 mg/kg·day).
`CS(=O)(=O)O.Oc1ccc2c(c1)OCC(c1ccccc1)=C2Cc1ccc(OCCN2CCCCC2)cc1` [Example 43, 3-phenyl-4-(4-(2-(N-piperidinyl)ethoxy)benzyl)-7-hydroxychrom-3-ene methansulfonate (1:1)]: the solubility in the data set “Solubility in water” is above 1000 µg/mL.
As for `COc1ccc2c(c1)OC(C)(C)[C@@H](c1ccccc1)[C@@H]2c1ccc(OCCN2CCCC2)cc1` [levormeloxifene], in the data set with OVX rats [1], the “eosinophilic peroxidase activity compared to OVX uteri” value is “significantly increased” and the “uterine epithelia / endometrium histology” value was “full disappearance of epithelium atrophy”. In the data set on OVX rats [4], the “lowering of serum cholesterol levels” value is “significantly less potent”. Further, in data set [2] (at 1 mg/kg/day, partial antagonism), the “inhibition of E2 stimulation of the uterus” value is 40-45%. Further, in [5], the “uterine weights versus control rats” value was “significantly increased”. Besides, the “maximal agonist activity, % that of E2” value in [5] (at 1 mg/kg) is reported as 60-65%.
As to `O=C(c1ccc(OCCN2CCCCC2)cc1)c1c(-c2ccc(O)cc2)sc2cc(O)ccc12` [raloxifene], in the data set on OVX rats [4], the “lowering of serum cholesterol levels” value was “significantly less potent”. Besides, the “ED50 = dose required to produce 50% reduction in estradiol-stimulated growth” value in data set [2] (setting [6]) came out at 0.39 mg/kg·day. Besides, in the data set on MCF-7, the “concentration of total growth inhibition” value is 18 µM. In addition, the IC50 with MCF-7 (Homo sapiens, MCF7, 72 h) is 11000 nM. In addition, in data set [5], the “increase of uterine weight compared with vehicle treated control rats” value is 32%, the “uterine weights versus control rats” value is reported as “not significantly different from control rats” and the “uterine weight versus control rats” value was “not significantly different from control rats”.
Consider `CC/C(=C(\c1ccccc1)c1ccc(OCCN(C)C)cc1)c1ccccc1` [tamoxifene], for which, in the data set with MCF-7, the “concentration of total growth inhibition” value was found to be 11 µM.
